The record followed here is patent US5096924A, “Anticancer antibiotic MI43-37F11 substance” (501 Azidan Hojin Biseibutsu Kagaku Kenkyu Kai, priority 1989, dated 1992).

Assay [1] deals with peritoneal macrophages. Put plainly: Effect on phagocytosis of the peritoneal macrophages. It counts as in vivo, CDF1 mice. Conditions: for Rate (%) of Increase in phagocytic action of peritoneal macrophages: 3 days and one day before harvest, control 100. The protocol: (4) Experiments for estimation of the effect of the antibiotic MI43-37F11 substance on phagocytosis of the peritoneal macrophages were conducted by the following procedure. Thus, 3 days and one day before the harvest of the peritoneal macrophages, MI43-37F11 substance was intraperitoneally administered to CDF1 mice (female, 8-weeks old, 3 mice) at a dosage of 50 mg/kg, 5 mg/kg or 0.5 mg/kg. One day after the administration of MI43-37F11 substance, the peritoneal macrophages were harvested from the peritoneal cavity of the mice of the treated group of mice and then inoculated into a culture medium present in a plastic dish (Falcone) at the cell density of 5×10^5 cells/m(, followed by incubation of the macrophages. The incubated medium containing the macrophages was then added with 7.5×10^6 cells/ml of heat-treated yeast cells, followed by further incubation for a time. The macrophages were then fixed by addition of methanol and stained by Giemsa staining method. The number of the yeast cells which received the phagocytosis by 400 macrophages was counted. The control group of mice (untreated) received only intraperitoneal injection of physiological saline in place of the administration of MI43-37F11 substance, before the harvest of the peritoneal macrophages was done. Assumed that the number of the yeast cells which had received the phagocytosis by 400 macrophages as harvested from the mice of the control group was amounting to 100, the rate of increase in the phagocytic action of the peritoneal macrophages as harvested from the treated group of mice was evaluated. In other words, the rate (%) of increase in the phagocytic action of the peritoneal macrophages of the mice of the treated group was calculated according to the following equation: [formula] where T means the mumber of yeast cells having received the phagocytosis by 400 macrophages which were harvested from the treated group of mice, and C means the number of yeast cells having received the phagocytosis by 400 macrophages which were harvested from the control group of mice (untreated).

Assay [2] concerns Ehrlich carcinoma. Description: Activity against Ehrlich carcinoma (general statement). The format is in vivo. Conditions: general statement in words. The protocol: (a) Experiments for therapeutic treatment of Ehrlich carcinoma-bearing mice were conducted by intraperitoneal injection of the antibiotic MI43-37F11 substance. Thus, a cell suspension of Ehrlich ascites carcinoma cells was subcutaneously inoculated at the abdominal region of ICR mice (female, 6-week old, 4 mice in each treated group) so that the number of the carcinoma cells as subcutaneously transplanted was 2×10^6 cells per mouse. After the transplantation of the carcinoma cells, the antibiotic MI43-37F11 substance was administered by intraperitoneal injection to the mice having the transplanted and firmly grown carcinoma cells, according to the following schedule of administration. […]
On the 15th day after the transplantation of the carcinoma cells, the mass of the tumor (carcinoma) was surgically removed out of each mouse and weighed. The rate of the reduction in the weight of the tumor (carcinoma) obtained from the group of mice treated with MI43-37F11 substance was evaluated in term of the rate (%) of inhibition, with such an assumption that the weight of the tumor obtained from the control group of mice was amounting to 100. […]

For the compound `COc1cc(O)c2c(=O)oc(CO)cc2c1` [MI43-37F11 substance], the “Rate (%) of Increase in phagocytic action of peritoneal macrophages” value was found to be 102% in assay [1] (0.5 mg/kg i.p.), 80% in assay [1] (5 mg/kg i.p.) and 144% in assay [1] (50 mg/kg i.p.). The “enhance the phagocytic action of the macrophages” value in assay [1] (summary in words) is reported as “effective”. Besides, in assay [2], the “activity against Ehrlich carcinoma” value is on record as “high activity”.
